Measurements from patent US10526327B2, “Histone demethylase inhibitors” (CELGENE QUANTICEL RESEARCH, INC., priority 2013, dated 2020).

What was measured:
JMJD2C = target: T1, JMJD2C (Homo sapiens, UniProt Q9H3R0); experiment: JMJD2C in vitro enzyme inhibition assay (TR-FRET); type: biochemical
T1 construct: purchased BPS Bioscience 50105
T1 sequence (Q9H3R0 2-372): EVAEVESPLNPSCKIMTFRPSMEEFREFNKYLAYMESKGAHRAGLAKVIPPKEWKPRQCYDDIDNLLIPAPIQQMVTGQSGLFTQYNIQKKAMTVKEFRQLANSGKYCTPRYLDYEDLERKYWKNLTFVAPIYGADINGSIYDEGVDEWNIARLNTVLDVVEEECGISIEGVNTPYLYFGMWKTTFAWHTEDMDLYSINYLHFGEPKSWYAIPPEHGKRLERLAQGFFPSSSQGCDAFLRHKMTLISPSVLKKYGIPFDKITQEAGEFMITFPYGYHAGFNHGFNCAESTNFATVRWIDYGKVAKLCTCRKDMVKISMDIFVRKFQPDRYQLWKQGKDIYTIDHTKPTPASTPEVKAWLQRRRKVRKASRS
Excerpt: (§1) This assay determines the ability of a test compound to inhibit Jarid1A, Jarid1B, and JMJD2C demethylase activity. Baculovirus expressed Jarid1A (GenBank Accession #NM_001042603, AA1-1090) was purchased from BPS Bioscience (Cat#50110). Baculovirus expressed Jarid1B (GenBank Accession #NM_006618, AA 2-751) was purchased from BPS Bioscience (Cat #50121) or custom made by MolecularThroughput. Baculovirus expressed JMJD2C (GenBank Accession #BC143571, AA 2-372) was purchased from BPS Bioscience (Cat#50105).
The ability of test compounds to inhibit the activity of JMJD2C was determined in 384-well plate format under the following reaction conditions: 0.3 nM JMJD2C, 300 nM H3K9me3-biotin labeled peptide (Anaspec cat #64360), 2 μM alpha-ketoglutaric acid in assay buffer of 50 mM HEPES, pH7.3, 0.005% Brij35, 0.5 mM TCEP, 0.2 mg/ml BSA, 50 μM sodium L-ascorbate, and 2 μM ammonium iron(II) sulfate. Reaction product was determined quantitatively by TR-FRET after the addition of detection reagent Phycolink Streptavidin-allophycocyanin (Prozyme) and Europium-anti-di-methylated histone H3 lysine 9 (H3K9me2) antibody (PerkinElmer) in the presence of 5 mM EDTA in LANCE detection buffer (PerkinElmer) at a final concentration of 50 nM and 1 nM, respectively.
(§2) The assay reaction was initiated by the following: 2 μl of the mixture of 900 nM H3K9me3-biotin labeled peptide and 6 μM alpha-ketoglutaric acid with 2 μl of 11-point serial diluted inhibitor in 3% DMSO were added to each well of the plate, followed by the addition of 2 μl of 0.9 nM JMJD2C to initiate the reaction. The reaction mixture was incubated at room temperature for 30 minutes, and terminated by the addition of 6 μl of 5 mM EDTA in LANCE detection buffer containing 100 nM Phycolink Streptavidin-allophycocyanin and 2 nM Europium-anti-H3K9me2 antibody. Plates were read by EnVisionMultilabel Reader in TR-FRET mode (excitation at 320 nm, emission at 615 nm and 665 nm) after 1 hour incubation at room temperature. A ratio was calculated (665/615) for each well and fitted to determine inhibition constant (IC50).

Jarid1B = target: T2, Jarid1B (Homo sapiens, UniProt Q9UGL1); experiment: Jarid1B in vitro enzyme inhibition assay (TR-FRET); type: biochemical
T2 construct: purchased BPS Bioscience or custom made by MolecularThroughput 50121
T2 sequence (Q9UGL1 2-751): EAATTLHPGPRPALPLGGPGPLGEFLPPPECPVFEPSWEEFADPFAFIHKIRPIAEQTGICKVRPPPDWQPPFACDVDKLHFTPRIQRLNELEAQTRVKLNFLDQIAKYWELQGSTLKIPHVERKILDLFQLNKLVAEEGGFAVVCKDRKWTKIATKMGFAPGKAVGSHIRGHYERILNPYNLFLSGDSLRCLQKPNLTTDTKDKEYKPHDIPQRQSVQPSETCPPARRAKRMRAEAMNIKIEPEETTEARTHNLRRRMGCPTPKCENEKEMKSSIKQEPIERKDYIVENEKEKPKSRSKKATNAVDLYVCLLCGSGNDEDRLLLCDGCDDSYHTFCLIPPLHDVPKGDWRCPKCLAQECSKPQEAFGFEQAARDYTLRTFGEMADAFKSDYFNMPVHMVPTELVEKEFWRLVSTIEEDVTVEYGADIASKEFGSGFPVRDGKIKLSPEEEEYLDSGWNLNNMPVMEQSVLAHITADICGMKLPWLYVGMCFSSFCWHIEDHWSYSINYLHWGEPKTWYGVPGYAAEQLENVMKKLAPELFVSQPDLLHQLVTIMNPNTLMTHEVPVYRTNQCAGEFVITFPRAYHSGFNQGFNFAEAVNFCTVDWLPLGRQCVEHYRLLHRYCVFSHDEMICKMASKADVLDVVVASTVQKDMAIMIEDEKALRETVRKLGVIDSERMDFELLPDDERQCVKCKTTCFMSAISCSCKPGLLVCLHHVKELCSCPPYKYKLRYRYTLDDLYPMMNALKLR
Excerpt: as §1
The ability of test compounds to inhibit the activity of Jarid1B was determined in 384-well plate format under the following reaction conditions: 0.8 nM Jarid1B, 300 nM H3K4me3-biotin labeled peptide (Anaspec cat #64357), 2 μM alpha-ketoglutaric acid in assay buffer of 50 mM HEPES, pH7.3, 0.005% Brij35, 0.5 mM TCEP, 0.2 mg/ml BSA, 50 μM sodium L-ascorbate, and 2 μM ammonium iron(II) sulfate. Reaction product was determined quantitatively by TR-FRET after the addition of detection reagent Phycolink Streptavidin-allophycocyanin (Prozyme) and Europium-anti-mono-or di-methylated histone H3 lysine 4 (H3K4me1-2) antibody (PerkinElmer) in the presence of 5 mM EDTA in LANCE detection buffer (PerkinElmer) at a final concentration of 25 nM and 1 nM, respectively.
as §2, with “nM H3K4me3-biotin” for “nM H3K9me3-biotin”, “DMSO was” for “DMSO were”, “of 2.4” for “of 0.9”, “nM Jarid1B” for “nM JMJD2C”, “containing 50” for “containing 100”, “nM Europium-anti-H3K4me1-2” for “nM Europium-anti-H3K9me2”

Row | SMILES | IC50 (JMJD2C) | IC50 (Jarid1B)
1 | Oc1nc(OCc2ccccc2)nc2cnccc12 [Example 4, 2-phenylmethoxypyrido[3,4-d]pyrimidin-4-ol] | 100 to 1000 nM | 100 to 1000 nM
2 | Oc1nc(OCCOc2ccccc2)nc2cnccc12 [Example 10, 2-(2-phenoxyethoxy)-3H-pyrido[3,4-d]pyrimidin-4-one] | 100 to 1000 nM | 100 to 1000 nM
3 | CC(=O)Nc1ccc(Oc2nc(O)c3ccncc3n2)cc1 [Example 35, N-[4-(4-hydroxypyrido[3,4-d]pyrimidin-2-yl)oxyphenyl]acetamide] | 100 to 1000 nM | ≤ 100 nM
4 | CC(C)(C)OC(=O)Nc1cccc(Oc2nc(O)c3ccncc3n2)c1 [Example 36, tert-butyl N-[3-(4-hydroxypyrido[3,4-d]pyrimidin-2-yl)oxyphenyl]carbamate] | 100 to 1000 nM | ≤ 100 nM
5 | Oc1nc(Oc2ccc(F)c(F)c2)nc2cnccc12 [Example 37, 2-(3,4-difluorophenoxy)pyrido[3,4-d]pyrimidin-4-ol] | ≤ 100 nM | ≤ 100 nM
6 | COc1ccc(Oc2nc(O)c3ccncc3n2)cc1OC [Example 38, 2-(3,4-dimethoxyphenoxy)pyrido[3,4-d]pyrimidin-4-ol] | 100 to 1000 nM | ≤ 100 nM
7 | CC(C)c1cccc(Oc2nc(O)c3ccncc3n2)c1 [Example 39, 2-(3-propan-2-ylphenoxy)pyrido[3,4-d]pyrimidin-4-ol] | 100 to 1000 nM | ≤ 100 nM
8 | Oc1nc(Oc2cccc(F)c2)nc2cnccc12 [Example 40, 2-(3-fluorophenoxy)pyrido[3,4-d]pyrimidin-4-ol] | ≤ 100 nM | ≤ 100 nM
9 | Oc1nc(Oc2cccc(F)c2F)nc2cnccc12 [Example 42, 2-(2,3-difluorophenoxy)pyrido[3,4-d]pyrimidin-4-ol] | 100 to 1000 nM | 100 to 1000 nM
10 | COc1c(F)cc(Oc2nc(O)c3ccncc3n2)cc1F [Example 43, 2-(3,5-difluoro-4-methoxyphenoxy)pyrido[3,4-d]pyrimidin-4-ol] | 100 to 1000 nM | ≤ 100 nM
11 | COc1cccc(Oc2nc(O)c3ccncc3n2)c1 [Example 44, 2-(3-methoxyphenoxy)pyrido[3,4-d]pyrimidin-4-ol] | 100 to 1000 nM | ≤ 100 nM
12 | CCOc1c(F)cc(Oc2nc(O)c3ccncc3n2)cc1F [Example 45, 2-(4-ethoxy-3,5-difluorophenoxy)pyrido[3,4-d]pyrimidin-4-ol] | 100 to 1000 nM | ≤ 100 nM

The next lines start with the values.

Row | IC50 (JMJD2C) | IC50 (Jarid1B) | SMILES
13 | 100 to 1000 nM | 100 to 1000 nM | OCCOc1nc(O)c2ccncc2n1 [Example 3, 2-(2-hydroxyethoxy)pyrido[3,4-d]pyrimidin-4-ol]
14 | 100 to 1000 nM | 100 to 1000 nM | Oc1nc(OCC2CC2)nc2cnccc12 [Example 5, 2-(cyclopropylmethoxy)-3H-pyrido[3,4-d]pyrimidin-4-one]
15 | 100 to 1000 nM | 100 to 1000 nM | Oc1nc(OC2CCCC2)nc2cnccc12 [Example 6, 2-cyclopentyloxy-3H-pyrido[3,4-d]pyrimidin-4-one]
16 | 100 to 1000 nM | 100 to 1000 nM | CCCOc1nc(O)c2ccncc2n1 [Example 7, 2-propoxy-3H-pyrido[3,4-d]pyrimidin-4-one]
17 | 100 to 1000 nM | 100 to 1000 nM | COc1nc(O)c2ccncc2n1 [Example 8, 2-methoxypyrido[3,4-d]pyrimidin-4-ol]
18 | ≤ 100 nM | 1000 to 10000 nM | CCC(C)Oc1nc(O)c2ccncc2n1 (stereo not drawn) [Example 9, 2-butan-2-yloxy-3H-pyrido[3,4-d]pyrimidin-4-one]
19 | 100 to 1000 nM | 100 to 1000 nM | Oc1nc(OCC2CCC2)nc2cnccc12 [Example 11, 2-(cyclobutylmethoxy)-3H-pyrido[3,4-d]pyrimidin-4-one]
20 | 100 to 1000 nM | 100 to 1000 nM | Oc1nc(OCC(F)(F)F)nc2cnccc12 [Example 12, 2-(2,2,2-trifluoroethoxy)pyrido[3,4-d]pyrimidin-4-ol]
21 | 100 to 1000 nM | ≤ 100 nM | Oc1nc(Oc2cccc(Cl)c2)nc2cnccc12 [Example 41, 2-(3-chlorophenoxy)pyrido[3,4-d]pyrimidin-4-ol]
